{"source": "patent US7053043B1", "about": "“Pharmaceutical compositions comprising synthetic peptide copolymers and methods for preventing and treating GVHD and HVGD” (Yeda Research and Development Co.Ltd., priority 1999, dated 2006)", "key": {"[1]": {"system": "proliferation of B10.PL (H-2u) responder cells to BALB/c stimulator cells", "test": "Mixed lymphocyte reaction (MLR) across major histocompatibility barriers, B10.PL vs BALB/c", "format": "cell-based, mice", "conditions": "20 μg/well, Cop 1 Batch I, 1:1 ratio of responder to stimulator cells", "method": "(§1) Responder cells for MLR reactions across major histocompatibility barriers were harvested from spleen of non-immunized mice while responder cells for MLR across minor histocompatibility barriers were harvested from mice which were preimmunized with irradiated (30 Gy) 50×10^6 stimulator spleen cells 21 days before. Responder cells (5×10^5 spleen cells per well) were tested for their proliferative response by plating with different amounts (2.5 to 10×10^5) of irradiated stimulator cells, in presence or absence of various peptide inhibitors (10–100 μg per well). Cultures were set up in 200 μl media containing 10% FCS in flat-bottom microtiter plates. After 4 days of incubation, cultures were pulsed with 1 μCi of [^3H]thymidine for an additional 16 hours. Results are represented as mean counts per minute (cpm) thymidine incorporation from triplicate cultures.\n(§2) To investigate the feasibility of inhibition of MLR by Copolymer 1, an MLR system was developed in which Copolymer 1 was tested for its ability to inhibit the proliferation of B10.PL (H-2^u) responder cells to stimulator cells of either the same (PL/J) or different (BALB/c) H-2 haplotype. For comparison, the inhibitory MBP Ac 1-11[4A], MBP 35-47, a combination of Ac 1-1[4A]+MBP 35-47, MBP 89-101 and KM-core peptides, described in Schlegel et al. (1994), were used in the MLR experiments.\n(§3) The inhibition obtained by Copolymer 1 was similar (in response to minor histocompatibility antigen) or even higher (in response to major histocompatibility antigen) than the inhibition obtained with the combination of the two synthetic peptides Ac 1-11[4A] and MBP 35-47, which specifically bind to the class II molecules I-A^u and the I-E^u, respectively. The molar efficiency of Copolymer 1 of M.W. 6000 is even higher since the molecular weight of the synthetic peptides is 4–5 fold lower."}, "[2]": {"system": "proliferation of B10.PL (H-2u) responder cells to PL/J stimulator cells", "test": "Mixed lymphocyte reaction (MLR) across minor histocompatibility barriers", "format": "cell-based, mice", "conditions": "20 μg/well, Cop 1 Batch I, 1:1 ratio of responder to stimulator cells", "method": "as §1, §2, §3"}, "[3]": {"system": "GVHD in B10.D2 → BALB/c recipients", "test": "Murine lethal GVHD model after bone marrow transplantation, B10.D2/nSnJ→BALB/c", "format": "in vivo, mice", "conditions": "for overall incidence of GVHD: 600 μg per injection (ip + sc), Cop 1 Batch I", "method": "The murine GVHD model of B10.D2/nSnJ→BALB/c mice (both H-2^d) across minor histocompatibility barriers, was selected since it is similar to the MHC matched bone marrow transplantation in humans. For the induction of GVHD, 10×10^6 bone marrow and 100×10^6 spleen cells from B10.D2 mice were injected into lethally irradiated (8.0 Gy) BALB/c recipients. […] Recipient mice were 12–13 weeks at the time of transplantation.\nBased on previous studies with Cop 1 in EAE (Sela et al., 1990; Teitelbaum et al., 1971; Teitelbaum et al., 1973) and class II-binding competitor peptides in GVHD (Schlegel et al., 1994), the dosage of 600 μg per injection was selected, half of which was administered intraperitoneally (ip), whereas the other half was given subcutaneously (sc). Treatment of BALB/c recipient mice was initiated on day −1, followed by daily injections for the first five weeks starting on day 0 after transplantation. The frequency of injections was tapered to three times per week for the subsequent two weeks and to two times per week for another two weeks and then discontinued. Throughout the experiment, copolymers and controls were administered once a week with incomplete Freund's adjuvant (IFA) ip as a depot dose (Schlegel et al., 1994). Treatment was discontinued 9 weeks after transplantation.\nMice were followed up daily for 140 days after bone marrow transplantation for signs of GVHD. Disease severity was assessed by mortality, loss of body weight, and by the extent of macroscopic skin involvement scored on a cumulative scale (from min O— max 8): head 1, neck 1, back (1/3, 2/3, 3/3) 1–3, front (1/3, 2/3, 3/3) 1–3. Skin biopsies were examined as previously described (Schlegel et al., 1994).\n(ii) Effect of Copolymer 1 Treatment on the Incidence, Onset and Severity of GVHD. […] For the first five weeks after transplant mice were injected daily as outlined in Materials and Methods, followed by a tapering schedule over an additional four weeks.\n(iii) Effect of Copolymer 1 treatment on survival. […]"}, "[4]": {"system": "T cell proliferation in MHC-disparate mixed lymphocyte cultures", "test": "Mixed lymphocyte cultures across major histocompatibility barriers, six MHC-disparate strain combinations", "format": "cell-based, mice", "conditions": "10–100 μg/well, all concentrations tested", "method": "as §1"}, "[5]": {"system": "function of transplanted thyroids", "test": "Thyroid graft assay for HVGD (125I absorption of thyroid transplanted in kidney capsule)", "format": "in vivo, mice", "conditions": "B10.D2 → BALB/c, FK506 300 μg", "method": "In this transplantation model for HVGD, thyroid glands from donor mice were transplanted in the kidney's capsules of recipient mice. One week later the transplanted mice were injected with ^125I, and the radioactivity of each kidney (the recipient or the untransplanted kidney) was measured after 20 hours. Δcpm was calculated by subtracting the ^125I absorbance of the untransplanted kidneys from the ^125I absorbance of the recipient kidneys in the same treatment. The mean function index (MFI) for treatment was calculated by dividing the mean Δcpm for the tested (Copolymer 1) treatment by the mean Δcpm for the PBS treatment. P values were obtained by the t test. This assay indicates objectively and quantitatively not only the graft survival, but also the function (iodine absorbance) of the transplanted thyroid tissue (Isakov et al., 1979).\nThe transplanted mice were treated daily with Copolymer 1 600 μg/day (300 μg ip+300 μg sc) in PBS solution, starting 7 days before transplantation. The first Cop 1 treatment on day −7 was injected sc in ICFA as a depot dose. Control mice were treated daily with PBS alone and PBS with ICFA on day −7 before transplantation.\nTo test the effect of Copolymer 1 treatment on the function of transplanted thyroids in the B10.D2→BALB/c model, thyroid glands from donors B10.D2 were transplanted in the kidney's capsules of BALB/c mice. After one week the transplanted mice were injected with ^125I, and the radioactivity of each kidney was measured 20 hours later. cpm was calculated by subtracting the ^125I absorbance of the untransplanted kidneys from the ^125I absorbance of the recipient kidneys in the same treatment. The mean function index (MFI) for each treatment was calculated by dividing the mean ^125I absorbance of (transplanted kidney-untransplanted kidney) in the tested treatment by the mean ^125I absorbance of (transplanted kidney-untransplanted kidney) in the PBS treatment, as follows: […]"}, "skin graft rejection": {"system": "skin graft rejection", "test": "Skin graft transplantation model for HVGD", "format": "in vivo, mice", "conditions": "B10.D2 → BALB/c, FK506 300 μg/day ip, 7 injections from day −2", "method": "Recipient mice were dorsally transplanted with circular pieces of donor skin. Mice were inspected daily. Grafts were considered rejected when no viable donor epidermis remained. The results are expressed in mean survival time (MST). P values were obtained by analysis of variance (ANOVA).\n[…] The first Cop 1 treatment on day −7 was injected sc in ICFA as a depot dose. Control mice were treated daily with PBS alone and PBS with ICFA on day −7 before transplantation.\nGrafts were inspected daily. Rejection was considered positive when no viable donor epidermis remained. […]"}}}
{"molecule": "MBP 89-101: peptide VHFFKNIVTPRTP (SEQ ID NO:4) of myelin basic protein", "values": [{"measurement": "inhibition of MLR", "setting": "[1]", "value": "did not induce any significant effect"}, {"measurement": "inhibition of MLR", "setting": "[2]", "value": "did not induce any significant effect"}]}
{"molecule": "KM-core: KMKMVAAHAKMKM (SEQ ID NO:3), based on the antigenic core sequence of ovalbumin 323–339 (KMKMVHAAHAKMKM)", "values": [{"measurement": "inhibition of MLR", "setting": "[1]", "value": "did not induce any significant effect"}, {"measurement": "inhibition of MLR", "setting": "[2]", "value": "did not induce any significant effect"}]}
{"molecule": "Hen egg-white lysozyme [HEL]", "values": [{"measurement": "long-term survival from lethal graft-versus-host disease", "setting": "[3]; 600 μg per injection", "value": "did not improve long-term survival"}, {"measurement": "overall incidence of GVHD", "setting": "[3]; day 30 after transplant", "value": 100, "unit": "%"}, {"measurement": "overall incidence of GVHD", "setting": "[3]; day 70 after transplant", "value": 100, "unit": "%"}, {"measurement": "median onset of GVHD", "setting": "[3]; days after transplant, 600 μg per injection", "value": 22, "unit": "days"}, {"measurement": "inhibitory effect on the MLC", "setting": "[4]", "value": "no or only minimal inhibitory effect"}]}
{"molecule": "C=CC[C@@H]1/C=C(\\C)C[C@H](C)C[C@H](OC)[C@H]2O[C@@](O)(C(=O)C(=O)N3CCCC[C@H]3C(=O)O[C@H](/C(C)=C/[C@@H]3CC[C@@H](O)[C@H](OC)C3)[C@H](C)[C@@H](O)CC1=O)[C@H](C)C[C@@H]2OC", "note": "[FK506]", "values": [{"measurement": "Mean 125I Absorption, Transplanted Kidney (cpm)", "setting": "[5]", "value": 3117, "unit": "cpm"}, {"measurement": "Mean 125I Absorption, Untransplanted Kidney (cpm)", "setting": "[5]", "value": 693, "unit": "cpm"}, {"measurement": "cpm (transplanted minus untransplanted kidney)", "setting": "[5]", "value": 2424, "unit": "cpm"}, {"measurement": "MFI (mean function index)", "setting": "[5]; folds over PBS treatment", "value": 3.1}, {"measurement": "MST ± SD (Mean Survival Time of skin graft)", "setting": "skin graft rejection", "value": "21.2 ± 4.3", "unit": "days"}, {"measurement": "MST ± SD (Mean Survival Time of skin graft)", "setting": "skin graft rejection; listed as FK 506", "value": 21.2, "unit": "days"}]}
